pEC50: −log10 of the molar value.
Key:
HCMV (strain AD169) [1] = assay: Inhibition of HCMV replication, ELISA assay (Hs-68 cells); type: cell-based, Human Cytomegalovirus (HCMV); conditions: read-out: ELISA CMV EC50
Summary of the method: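 Hs-68 fibroblasts at 80–90% confluency infected with HCMV AD169 at MOI 0.01 PFU/cell for 2 h, washed, then cultured 8 days at 37 °C with test compound in DMEM/5% FBS. Late protein p28 detected by ELISA (mAb UL99, HRP/OPD, 450 nm); EC50 from % inhibition of replication.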

HCMV (strain AD169) [2] = assay: Inhibition of HCMV replication, plaque reduction assay (PRA, Hs-68 cells); type: cell-based, Human Cytomegalovirus (HCMV); conditions: read-out: PRA CMV EC50
Summary of the method: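 Hs-68 monolayers (80–90% confluent) were infected with ~50 PFU HCMV AD169 for 2 h at 37°, then given compound in DMEM/5% inactivated FBS, refreshed after 4 days and kept 4 more days. Plaques were counted after formaldehyde fixation and crystal violet staining. EC50 derives from percent plaque reduction versus untreated wells.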

[3] = Human betaherpesvirus 5, AD169, Hs68, Group 1 Table 2 entries
[4] = Human betaherpesvirus 5, AD169, Hs68, Group 1 Table 1 entries
[5] = Human betaherpesvirus 5, AD169, Hs68, Group 1 Table 5 entries
[6] = Human betaherpesvirus 5, AD169, Hs68, Group 1 Table 3 entries

| Compound | pEC50 (HCMV (strain AD169) [1]; [4]) | pEC50 (HCMV (strain AD169) [2]; [4]) | other results |
| --- | --- | --- | --- |
| Nc1nc(-c2ccc(NC(=O)CCN(Cc3ccccc3)C(=O)OCc3ccccc3)cc2)cs1 [Example 16] | – | – | pEC50 (HCMV (strain AD169) [1]; [3]): 5.15; pEC50 (HCMV (strain AD169) [2]; [3]): 5.10 |
| Nc1nc(-c2ccc(NC(=O)CN(CCc3ccccn3)C(=O)C3CCCC3)cc2)cs1 [Example 79] | 5.42 | 4.26 | – |
| CN[C@@H](Cc1ccccc1)C(=O)Nc1ccc(-c2csc(N)n2)cc1 [Example 8] | – | – | pEC50 (HCMV (strain AD169) [1]; [5]): 5.96; pEC50 (HCMV (strain AD169) [2]; [5]): 4.48 |
| Nc1nc(-c2ccc(NC(=O)CN(Cc3ccccc3)C(=O)c3ccccc3)cc2)cs1 [Example 23] | 4.92 | 4.44 | – |
| C[C@@H](c1ccccc1)N(CC(=O)Nc1ccc(-c2csc(N)n2)cc1)C(=O)c1ccncc1 [Example 58] | 5.28 | 4.52 | – |
| CC(C)C(=O)N(CC(=O)Nc1ccc(-c2csc(N)n2)cc1)Cc1ccccc1 [Example 43] | 4.60 | 4.89 | – |
| Nc1nc(-c2ccc(NC(=O)CN(CC3CCCCC3)C(=O)c3ccccc3)cc2)cs1 [Example 60] | 5.52 | – | pEC50 (HCMV (strain AD169) [2]; Group 1 Table 1 entries): 4.82 |
| Nc1nc(-c2ccc(NC(=O)CN(Cc3ccccc3)C(=O)Cc3ccccc3)cc2)cs1 [Example 26] | 5.74 | 4.82 | – |
| C[C@@H](c1ccccc1)N(CCC(=O)Nc1ccc(-c2csc(N)n2)cc1)C(=O)OC(C)(C)C [Example 18] | – | – | pEC50 (HCMV (strain AD169) [1]; [3]): 5.54; pEC50 (HCMV (strain AD169) [2]; [3]): 5.48 |
| Nc1nc(-c2ccc(NC(=O)CN(Cc3ccccc3)C(=O)C3CCCCC3)cc2)cs1 [Example 34] | 6.00 | 4.82 | – |
| Nc1nc(-c2ccc(NC(=O)CCN(Cc3ccccc3)Cc3ccccc3)cc2)cs1 [Example 2] | – | – | pEC50 (HCMV (strain AD169) [1]; [3]): 6.26; pEC50 (HCMV (strain AD169) [2]; [3]): 5.33 |
| Nc1nc(-c2ccc(NC(=O)CCNCC3CCCCC3)cc2)cs1 [Example 22] | – | – | pEC50 (HCMV (strain AD169) [1]; [3]): 5.32; pEC50 (HCMV (strain AD169) [2]; [3]): < 5.22 |
| Nc1nc(-c2ccc(NC(=O)CN(Cc3ccccc3)C(=O)c3ccccn3)cc2)cs1 [Example 27] | 5.15 | < 4.44 | – |
| CC(C)(C)OC(=O)N[C@@H](Cc1ccccc1)C(=O)Nc1ccc(-c2csc(N)n2)cc1 [Example 3] | – | – | pEC50 (HCMV (strain AD169) [1]; [5]): 6.85; pEC50 (HCMV (strain AD169) [2]; [5]): 4.62 |
| Nc1nc(-c2ccc(NC(=O)CN(Cc3ccccc3)C(=O)CC3CCCCC3)cc2)cs1 [Example 38] | 5.40 | 5.34 | – |
| CN(C(=O)CN(Cc1ccccc1)C(=O)C1CCCCC1)c1ccc(-c2csc(N)n2)cc1 [Example 1] | – | – | pEC50 (HCMV (strain AD169) [1]; [6]): < 4.34; pEC50 (HCMV (strain AD169) [2]; [6]): 4.62 |
| CC(C)(C)OC(=O)N(CCC(=O)Nc1ccc(-c2csc(N)n2)cc1)CC1CCCCC1 [Example 21] | – | – | pEC50 (HCMV (strain AD169) [1]; [3]): 5.38; pEC50 (HCMV (strain AD169) [2]; [3]): 5.19 |
| Nc1nc(-c2ccc(NC(=O)CN(Cc3ccccc3)C(=O)CC3CCCC3)cc2)cs1 [Example 39] | 5.21 | 5.07 | – |
| CC(C)c1nc(-c2ccc(NC(=O)CN(Cc3ccccc3)C(=O)c3ccccc3)cc2)cs1 [Example 20] | – | – | pEC50 (HCMV (strain AD169) [1]; [6]): 5.48; pEC50 (HCMV (strain AD169) [2]; [6]): 4.15 |
| CC(C)(C)NC(=S)N(CC(=O)Nc1ccc(-c2csc(N)n2)cc1)Cc1ccccc1 [Example 93] | 6.60 | < 4.62 | – |
| Nc1nc(-c2ccc(NC(=O)CN(Cc3ccccc3)S(=O)(=O)c3ccccc3)cc2)cs1 [Example 97] | < 5.30 | 4.82 | – |
| Nc1nc(-c2ccc(NC(=O)CN(Cc3ccccc3)C(=O)C3CCCC3)cc2)cs1 [Example 36] | 5.55 | 4.80 | – |
| CNc1nc(-c2ccc(NC(=O)CN(Cc3ccccc3)C(=O)c3ccccc3)cc2)cs1 [Example 6] | – | – | pEC50 (HCMV (strain AD169) [1]; [6]): 4.29; pEC50 (HCMV (strain AD169) [2]; [6]): 4.80 |
| CCC(CC)C(=O)N(CC(=O)Nc1ccc(-c2csc(N)n2)cc1)Cc1ccccc1 [Example 104] | 5.72 | < 4.74 | – |
| Nc1nc(-c2ccc(NC(=O)CCN(CC3CCCCC3)C(=O)c3cccnc3)cc2)cs1 [Example 24] | – | – | pEC50 (HCMV (strain AD169) [1]; [3]): 6.35; pEC50 (HCMV (strain AD169) [2]; [3]): 4.51 |
| Nc1nc(-c2ccc(NC(=O)CN(Cc3ccccc3)C(=O)c3cc[n+]([O-])cc3)cc2)cs1 [Example 30] | 4.11 | < 4.06 | – |

| Compound | pEC50 (HCMV (strain AD169) [1]; [4]) | pEC50 (HCMV (strain AD169) [2]; [4]) | other results |
| --- | --- | --- | --- |
| Nc1nc(-c2ccc(NC(=O)CN(CC3CCCCC3)C(=O)Cc3ccccc3)cc2)cs1 [Example 77] | 5.21 | 5.12 | – |
| Nc1nc(-c2ccc(NC(=O)[C@H](Cc3ccccc3)NCc3ccccc3)cc2)cs1 [Example 6] | – | – | pEC50 (HCMV (strain AD169) [1]; [5]): 6.85; pEC50 (HCMV (strain AD169) [2]; [5]): 5.15 |
| Nc1nc(-c2ccc(NC(=O)[C@@H](Cc3ccccc3)N(Cc3ccccc3)C(=O)C3CCCCC3)cc2)cs1 [Example 9] | – | – | pEC50 (HCMV (strain AD169) [1]; [5]): 5.40; pEC50 (HCMV (strain AD169) [2]; [5]): 5.06 |
| O=C(CN(Cc1ccccc1)C(=O)C1CCCCC1)Nc1ccc(-c2cscn2)cc1 [Example 5] | – | – | pEC50 (HCMV (strain AD169) [1]; [6]): < 4.20; pEC50 (HCMV (strain AD169) [2]; [6]): 4.80 |
| CCCC(CCC)N(CC(=O)Nc1ccc(-c2csc(N)n2)cc1)C(=O)C1CCCCC1 [Example 82] | 5.09 | 5.15 | – |
| Nc1nc(-c2ccc(NC(=O)CN(Cc3ccc(F)cc3)C(=O)c3ccncc3)cc2)cs1 [Example 84] | 5.25 | 4.43 | – |
| Nc1nc(-c2ccc(NC(=O)CN(Cc3ccccc3)C(=O)c3cccnc3)cc2)cs1 [Example 28] | 5.34 | 4.46 | – |
| Nc1nc(-c2ccc(NC(=O)CNCCCc3ccccc3)cc2)cs1 [Example 3] | 5.74 | < 4.85 | – |
| Nc1nc(-c2ccc(NC(=O)CCN(Cc3ccccc3)CC3CCCCC3)cc2)cs1 [Example 17] | – | – | pEC50 (HCMV (strain AD169) [1]; [3]): 5.33; pEC50 (HCMV (strain AD169) [2]; [3]): < 5.30 |
| CC(C)(C)OC(=O)N(CCC(=O)Nc1ccc(-c2csc(N)n2)cc1)C1Cc2ccccc2C1 [Example 14] | – | – | pEC50 (HCMV (strain AD169) [1]; [3]): 6.70; pEC50 (HCMV (strain AD169) [2]; [3]): < 4.55 |
| CN(CC(=O)Nc1ccc(-c2csc(N)n2)cc1)Cc1ccccc1 [Example 15] | 5.21 | 5.19 | – |
| CC(C)(C)OC(=O)N(CC(=O)Nc1ccc(-c2csc(N)n2)cc1)Cc1ccccc1 [Example 85] | 6.22 | 4.92 | – |
| C[C@@H](c1ccccc1)N(CC(=O)Nc1ccc(-c2csc(N)n2)cc1)C(=O)OC(C)(C)C [Example 89] | 6.05 | 4.42 | – |
| Nc1nc(-c2ccc(NC(=O)CN(Cc3cccnc3)C(=O)C3CCCCC3)cc2)cs1 [Example 48] | 5.30 | 4.31 | – |
| C[C@@H](c1ccccc1)N(CC(=O)Nc1ccc(-c2csc(N)n2)cc1)C(=O)C1CCCCC1 [Example 53] | 5.49 | 4.92 | – |
| CN(C)CCN(CC(=O)Nc1ccc(-c2csc(N)n2)cc1)C(=O)C1CCCCC1 [Example 140] | 5.85 | 4.54 | – |
| C[C@@H](NCCC(=O)Nc1ccc(-c2csc(N)n2)cc1)c1ccccc1 [Example 25] | – | – | pEC50 (HCMV (strain AD169) [1]; [3]): 6.00; pEC50 (HCMV (strain AD169) [2]; [3]): < 5.22 |
| Nc1nc(-c2ccc(NC(=O)CN(Cc3cccs3)C(=O)C3CCCCC3)cc2)cs1 [Example 51] | 5.22 | 4.96 | – |
| Nc1nc(-c2ccc(NC(=O)CNCc3ccccc3)cc2)cs1 [Example 1] | 4.60 | < 4.22 | – |
| Nc1nc(-c2ccc(NC(=O)CCN(Cc3ccccc3)C(=O)c3ccccc3)cc2)cs1 [Example 3] | – | – | pEC50 (HCMV (strain AD169) [1]; [3]): 5.92; pEC50 (HCMV (strain AD169) [2]; [3]): 5.04 |
| Nc1nc(-c2ccc(NC(=O)CCNCc3ccccc3)cc2)cs1 [Example 1] | – | – | pEC50 (HCMV (strain AD169) [1]; [3]): 5.49; pEC50 (HCMV (strain AD169) [2]; [3]): 4.52 |
| C[C@H](c1ccccc1)N(CC(=O)Nc1ccc(-c2csc(N)n2)cc1)C(=O)C1CCCCC1 [Example 52] | 5.89 | 5.22 | – |
| CN(C)c1nc(-c2ccc(NC(=O)CN(Cc3ccccc3)C(=O)c3ccccc3)cc2)cs1 [Example 11] | – | – | pEC50 (HCMV (strain AD169) [1]; [6]): 5.46; pEC50 (HCMV (strain AD169) [2]; [6]): 4.74 |
| Nc1nc(-c2ccc(NC(=O)CN(CCc3ccccc3)C(=O)C3CCCC3)cc2)cs1 [Example 66] | 6.46 | < 5.00 | – |
| CC(C)(C)CN(CC(=O)Nc1ccc(-c2csc(N)n2)cc1)C(=O)C1CCCCC1 [Example 80] | 5.02 | 5.02 | – |
